# ChEMBL document CHEMBL5137101, “Application of Selective SMARCA2/4 PROTAC for Mutant Cancer Therapy” (ACS Med Chem Lett, 2022)
# Experiments:
# Assay type in all cases: cell-based
# [1] = target: von Hippel-Lindau disease tumor suppressor/SWI/SNF-related matrix-associated actin-dependent regulator of chromatin subfamily A member 2 (Homo sapiens, UniProt P40337+P51531); assay: Protac activity at E3 ubiquitin-protein ligase/SMARCA2 in human VCaP cells assessed as SMARCA2 degradation incubated for 16 hrs by Western blot analysis relative to control
# Sequence of von Hippel-Lindau disease tumor suppressor/SWI/SNF-related matrix-associated actin-dependent regulator of chromatin subfamily A member 2 (P51531 whole entry): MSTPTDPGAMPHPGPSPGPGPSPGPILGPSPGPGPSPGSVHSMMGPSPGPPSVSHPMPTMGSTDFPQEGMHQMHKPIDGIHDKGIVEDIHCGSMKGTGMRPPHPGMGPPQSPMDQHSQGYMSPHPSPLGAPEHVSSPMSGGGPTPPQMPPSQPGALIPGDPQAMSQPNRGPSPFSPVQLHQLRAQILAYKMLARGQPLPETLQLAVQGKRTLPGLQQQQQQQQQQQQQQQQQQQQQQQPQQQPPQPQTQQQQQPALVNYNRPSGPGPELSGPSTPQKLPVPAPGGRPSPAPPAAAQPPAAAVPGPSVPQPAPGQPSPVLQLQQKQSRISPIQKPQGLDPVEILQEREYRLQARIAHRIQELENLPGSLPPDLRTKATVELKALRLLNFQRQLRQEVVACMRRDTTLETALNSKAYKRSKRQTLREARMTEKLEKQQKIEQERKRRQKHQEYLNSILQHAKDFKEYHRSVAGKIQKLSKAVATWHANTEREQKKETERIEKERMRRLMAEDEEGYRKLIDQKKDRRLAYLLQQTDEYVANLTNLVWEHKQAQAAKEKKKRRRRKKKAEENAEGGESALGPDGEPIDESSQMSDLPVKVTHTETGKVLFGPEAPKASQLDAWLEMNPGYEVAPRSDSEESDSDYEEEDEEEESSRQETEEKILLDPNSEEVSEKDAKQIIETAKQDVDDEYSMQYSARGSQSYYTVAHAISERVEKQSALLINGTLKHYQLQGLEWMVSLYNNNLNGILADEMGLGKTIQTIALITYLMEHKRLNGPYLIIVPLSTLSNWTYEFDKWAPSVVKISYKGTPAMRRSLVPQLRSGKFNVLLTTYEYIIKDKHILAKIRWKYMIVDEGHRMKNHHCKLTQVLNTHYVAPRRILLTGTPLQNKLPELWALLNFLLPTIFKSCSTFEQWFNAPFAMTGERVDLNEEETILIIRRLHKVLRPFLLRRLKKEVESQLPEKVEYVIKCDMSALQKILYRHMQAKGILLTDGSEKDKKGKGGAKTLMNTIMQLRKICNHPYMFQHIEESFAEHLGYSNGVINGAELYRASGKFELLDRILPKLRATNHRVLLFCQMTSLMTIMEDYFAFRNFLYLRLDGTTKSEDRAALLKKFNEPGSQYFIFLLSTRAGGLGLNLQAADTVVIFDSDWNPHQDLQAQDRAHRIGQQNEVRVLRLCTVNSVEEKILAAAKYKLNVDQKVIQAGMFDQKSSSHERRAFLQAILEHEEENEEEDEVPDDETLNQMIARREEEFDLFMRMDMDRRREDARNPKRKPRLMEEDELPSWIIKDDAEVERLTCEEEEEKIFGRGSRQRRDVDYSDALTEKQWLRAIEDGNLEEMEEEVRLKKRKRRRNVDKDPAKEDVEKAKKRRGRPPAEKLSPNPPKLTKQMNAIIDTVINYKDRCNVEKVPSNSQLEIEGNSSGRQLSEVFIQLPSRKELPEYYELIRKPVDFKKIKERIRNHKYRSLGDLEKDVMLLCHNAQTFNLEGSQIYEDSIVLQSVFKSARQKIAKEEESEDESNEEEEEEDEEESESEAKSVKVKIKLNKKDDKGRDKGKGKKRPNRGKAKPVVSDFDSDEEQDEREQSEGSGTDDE
# Sequence of von Hippel-Lindau disease tumor suppressor/SWI/SNF-related matrix-associated actin-dependent regulator of chromatin subfamily A member 2 (P40337 whole entry): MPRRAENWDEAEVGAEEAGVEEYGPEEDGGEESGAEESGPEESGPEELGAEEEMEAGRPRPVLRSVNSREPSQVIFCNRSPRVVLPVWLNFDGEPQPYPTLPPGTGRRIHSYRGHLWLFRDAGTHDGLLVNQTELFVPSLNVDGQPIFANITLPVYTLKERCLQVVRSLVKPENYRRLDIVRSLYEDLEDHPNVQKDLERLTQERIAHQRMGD
# [2] = target: von Hippel-Lindau disease tumor suppressor/SWI/SNF-related matrix-associated actin-dependent regulator of chromatin subfamily A member 2 (Homo sapiens) (UniProt P51531+P40337); assay: Protac activity at E3 ubiquitin-protein ligase/SMARCA2 in human VCaP cells assessed as SMARCA2 degradation at 100 nM incubated for 16 hrs by Western blot analysis relative to control
# Sequence of von Hippel-Lindau disease tumor suppressor/SWI/SNF-related matrix-associated actin-dependent regulator of chromatin subfamily A member 2 (Homo sapiens) (P40337 whole entry, looked up): as the sequence (P40337 whole entry) above
# Sequence of von Hippel-Lindau disease tumor suppressor/SWI/SNF-related matrix-associated actin-dependent regulator of chromatin subfamily A member 2 (Homo sapiens) (P51531 whole entry, looked up): as the sequence (P51531 whole entry) above
# [3] = target: von Hippel-Lindau disease tumor suppressor/SWI/SNF-related matrix-associated actin-dependent regulator of chromatin subfamily A member 4 (Homo sapiens, UniProt P40337+P51532); assay: Protac activity at E3 ubiquitin-protein ligase/SMARCA4 in human VCaP cells assessed as SMARCA4 degradation incubated for 16 hrs by Western blot analysis relative to control
# Sequence of von Hippel-Lindau disease tumor suppressor/SWI/SNF-related matrix-associated actin-dependent regulator of chromatin subfamily A member 4 (P51532 whole entry): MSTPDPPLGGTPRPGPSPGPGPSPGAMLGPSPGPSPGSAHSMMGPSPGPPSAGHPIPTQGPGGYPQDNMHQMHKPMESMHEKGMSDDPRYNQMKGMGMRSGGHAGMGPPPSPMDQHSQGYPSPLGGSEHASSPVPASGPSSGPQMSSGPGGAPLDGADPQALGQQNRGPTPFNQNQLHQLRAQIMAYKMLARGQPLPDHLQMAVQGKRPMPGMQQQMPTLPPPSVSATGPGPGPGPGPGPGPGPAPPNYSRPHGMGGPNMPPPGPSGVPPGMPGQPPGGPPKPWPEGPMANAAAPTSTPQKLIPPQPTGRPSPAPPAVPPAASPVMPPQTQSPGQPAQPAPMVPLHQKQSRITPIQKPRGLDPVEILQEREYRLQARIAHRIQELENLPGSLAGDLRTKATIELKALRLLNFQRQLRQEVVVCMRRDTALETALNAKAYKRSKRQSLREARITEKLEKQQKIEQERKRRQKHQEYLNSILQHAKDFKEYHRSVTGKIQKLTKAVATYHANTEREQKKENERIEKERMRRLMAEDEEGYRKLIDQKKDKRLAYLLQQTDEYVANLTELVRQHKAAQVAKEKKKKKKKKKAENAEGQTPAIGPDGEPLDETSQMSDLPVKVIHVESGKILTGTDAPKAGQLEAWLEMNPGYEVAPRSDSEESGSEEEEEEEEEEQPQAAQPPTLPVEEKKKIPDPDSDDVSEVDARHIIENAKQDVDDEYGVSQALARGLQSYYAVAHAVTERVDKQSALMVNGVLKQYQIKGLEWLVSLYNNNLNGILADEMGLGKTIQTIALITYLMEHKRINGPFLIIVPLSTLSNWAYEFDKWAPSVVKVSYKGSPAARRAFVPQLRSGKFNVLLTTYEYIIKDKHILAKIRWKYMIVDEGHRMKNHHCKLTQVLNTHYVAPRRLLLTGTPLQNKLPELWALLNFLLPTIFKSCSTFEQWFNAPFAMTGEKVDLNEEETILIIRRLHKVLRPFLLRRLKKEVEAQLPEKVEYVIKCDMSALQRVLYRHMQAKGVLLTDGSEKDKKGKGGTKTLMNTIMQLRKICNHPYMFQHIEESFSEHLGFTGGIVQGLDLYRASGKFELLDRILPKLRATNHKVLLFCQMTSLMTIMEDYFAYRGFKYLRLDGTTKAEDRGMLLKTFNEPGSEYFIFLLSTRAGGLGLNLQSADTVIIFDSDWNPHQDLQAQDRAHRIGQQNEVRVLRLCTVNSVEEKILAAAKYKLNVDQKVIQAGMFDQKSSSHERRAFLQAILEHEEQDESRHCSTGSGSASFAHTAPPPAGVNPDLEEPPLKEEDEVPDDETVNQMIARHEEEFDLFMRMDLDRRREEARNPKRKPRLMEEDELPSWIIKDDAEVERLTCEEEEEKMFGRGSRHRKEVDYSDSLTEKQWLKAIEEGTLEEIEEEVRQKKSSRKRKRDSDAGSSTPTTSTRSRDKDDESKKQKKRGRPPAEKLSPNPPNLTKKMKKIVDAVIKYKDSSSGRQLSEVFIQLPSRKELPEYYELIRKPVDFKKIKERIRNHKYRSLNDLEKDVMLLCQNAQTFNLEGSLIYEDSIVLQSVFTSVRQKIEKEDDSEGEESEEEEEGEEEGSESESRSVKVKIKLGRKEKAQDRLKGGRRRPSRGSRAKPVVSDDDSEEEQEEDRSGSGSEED
# Sequence of von Hippel-Lindau disease tumor suppressor/SWI/SNF-related matrix-associated actin-dependent regulator of chromatin subfamily A member 4 (P40337 whole entry): as the sequence (P40337 whole entry) above
# [4] = target: von Hippel-Lindau disease tumor suppressor/SWI/SNF-related matrix-associated actin-dependent regulator of chromatin subfamily A member 4 (Homo sapiens) (UniProt P51532+P40337); assay: Protac activity at E3 ubiquitin-protein ligase/SMARCA4 in human VCaP cells assessed as SMARCA4 degradation at 100 nM incubated for 16 hrs by Western blot analysis relative to control
# Sequence of von Hippel-Lindau disease tumor suppressor/SWI/SNF-related matrix-associated actin-dependent regulator of chromatin subfamily A member 4 (Homo sapiens) (P40337 whole entry, looked up): as the sequence (P40337 whole entry) above
# Sequence of von Hippel-Lindau disease tumor suppressor/SWI/SNF-related matrix-associated actin-dependent regulator of chromatin subfamily A member 4 (Homo sapiens) (P51532 whole entry, looked up): as the sequence (P51532 whole entry) above
EC50 [1],Activity [2],EC50 [3],Activity [4],SMILES
< 0.25 µM,94%,< 0.25 µM,0%,Cc1ncsc1-c1ccc([C@H](C)NC(=O)[C@@H]2C[C@@H](O)CN2C(=O)[C@@H](NC(=O)CN2CCN(c3ccc(-c4cnnc(-c5ccccc5O)c4)cc3)CC2)C(C)(C)C)cc1
,76%,,0%,Cc1ncsc1-c1ccc([C@H](C)NC(=O)[C@@H]2C[C@@H](O)CN2C(=O)[C@@H](NC(=O)C2CCN(c3ccc(-c4cnnc(-c5ccccc5O)c4)cc3)CC2)C(C)(C)C)cc1
,75%,,0%,Cc1ncsc1-c1ccc(CNC(=O)[C@@H]2C[C@@H](O)CN2C(=O)[C@@H](NC(=O)CN2CCC(c3ccc(-c4cnnc(-c5ccccc5O)c4)cc3)CC2)C(C)(C)C)cc1
< 0.25 µM,94%,< 0.25 µM,0%,Cc1ncsc1-c1ccc([C@H](C)NC(=O)[C@@H]2C[C@@H](O)CN2C(=O)[C@@H](NC(=O)CN2CCN(c3ccc(-c4cnnc(-c5ccccc5O)c4)cn3)CC2)C(C)(C)C)cc1
< 0.25 µM,97%,< 0.25 µM,40%,Cc1ncsc1-c1ccc([C@H](C)NC(=O)[C@@H]2C[C@@H](O)CN2C(=O)[C@@H](NC(=O)CC2CCN(c3ccc(-c4cnnc(-c5ccccc5O)c4)cc3)CC2)C(C)(C)C)cc1
< 0.25 µM,91%,< 0.25 µM,0%,Cc1ncsc1-c1ccc([C@H](C)NC(=O)[C@@H]2C[C@@H](O)CN2C(=O)[C@@H](NC(=O)CN2CCC(c3ccc(-c4cnnc(-c5ccccc5O)c4)cc3)CC2)C(C)(C)C)cc1
